These results are taken from patent US10213412B2, “Modulators of CA2+ release-activated CA2+ (CRAC) channels and pharmaceutical uses thereof” (Vivreon Biosciences, LLC, priority 2015, dated 2019).

Data set [1] can be described thus: Concentrations of Compound 1 in mouse plasma and brain after s.c. administration. It is filed as in vivo. Particulars: C57/BL6 mice. The procedure:
Compound 1 was administered s.c. to C57/BL6 mice and plasma and brain samples were processed and analyzed using standard bioanalytical protocols. Three mice were sacrificed at time points: 15 min, 1 hr and 4 hr. Blood was collected into lithium heparin tubes for plasma collection. Brain samples were homogenized prior to extraction using a FastPrep-24 tissue homogenizer. Plasma and brain homogenates were extracted by protein precipitation with acetonitrile containing verapamil as internal standard (IS). After vortexing for 10 min, samples were transferred to a 96 well filter plate and filtered using a centrifuge. Filtrates were analyzed by LC/MS/MS. The compounds were quantified with software using calibration curves. Compound 1 plasma (▪) and brain (•) concentrations are presented.

The test system of another data set is MDR1. As to the kind of experiment: MDCK-MDR1 permeability assay. In kind it is in vitro ADME, canine. Particulars: dog. The procedure:
Compound 1 was evaluated for permeability across polarized Madin-Darby canine kidney-multidrug resistance protein 1 (MDCK-MDR1) epithelial monolayers. MDCK-MDR1 cells grown in tissue culture flasks were trypsinized, suspended in medium, and the suspensions were applied to wells of a Millipore 96 well Caco-2 plate (FIG. 7). The cells were allowed to grow and differentiate for five days and confluence was confirmed. For Apical to Basolateral (A→B) permeability, Compound 1 was added to the apical (A) side and amount of permeation is determined on the basolateral (B) side; for Basolateral to Apical (B→A) permeability, the Compound 1 was added to the B side and the amount of permeation was determined on the A side and analyzed by LC/MS/MS.

The target in data set [2] is T1, recombinant human Orai1 and recombinant human STIM1 (Homo sapiens, UniProt Q96D31).
T1 construct: expressed in transfected cells; host or cells: human embryonic kidney 293 cells
T1 sequence (Q96D31 whole entry): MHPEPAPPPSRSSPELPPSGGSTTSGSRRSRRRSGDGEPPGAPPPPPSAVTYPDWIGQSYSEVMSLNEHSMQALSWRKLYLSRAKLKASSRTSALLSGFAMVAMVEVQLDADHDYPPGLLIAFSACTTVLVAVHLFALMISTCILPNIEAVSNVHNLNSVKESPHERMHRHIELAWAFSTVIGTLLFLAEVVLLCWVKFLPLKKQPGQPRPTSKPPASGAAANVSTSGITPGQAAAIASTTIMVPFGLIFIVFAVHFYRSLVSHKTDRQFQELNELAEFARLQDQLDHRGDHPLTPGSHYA
Kind of data set: Ca^2+ signaling assay in HEK293 cells transfected with Orai1 and STIM1 (Fura-2). The note with it: HEK293 transfected with Orai1/STIM1, 10 μM Compound 1, single cell Fura-2 fluorescence. In kind it is cell-based. The procedure:
FIG. 8 depicts Compound 1 as a modulator of store-operated Ca^2+ (SOC) channels. The white rectangle represents a 2 mM external Ca^2+ concentration solution, the hashed rectangle represents a 0 mM external Ca2+ concentration solution, the slashed rectangle represents a 0 mM external Ca^2+ concentration solution with 2 μM thapsigargin, the grey rectangle represents 10 μM Compound 1 in a 2 mM external Ca^2+ concentration solution, and the black rectangle represents […] 2-aminoethoxydiphenyl borate in a 2 mM external Ca^2+ concentration solution. Cell #1 and Cell #2 represent two separate human embryonic kidney 293 cells successfully transfected with recombinant human Orai1 and recombinant human STIM1.
Compound 1 was screened for inhibition of Ca^2+ signaling by examining the intracellular Ca^2+ response in the presence of Compound 1 (FIG. 8). First, human embryonic kidney 293 cells were transfected by lipofectamine with recombinant human Orai1 and recombinant human STIM1. Recombinant human Orai1 was genetically tagged with enhanced green fluorescent protein to label successfully transfected cells. Cells were plated on coverslips and loaded with 2 μM of the Ca^2+ indicator dye, Fura-2, to allow for detection of intracellular Ca^2+ concentration. Cellular fluorescence was determined by alternating fluorescent excitation at 340 and 380 nanometers.

The test system of data set [3] is experimental autoimmune encephalomyelitis. As to the kind of experiment: in vivo. In kind it is in vivo, C57/Bl6 mice.
A short description of the next data set: in vivo. In kind it is in vivo, C57/Bl6 mice. The note with it: C57/Bl6, mouse, in vivo, ip, 5 mg/kg.
A short description of data set [4]: In vivo pharmacokinetics in rat. The arrangement: species or system Sprague Dawley rat. The procedure:
Compound 1 was administered p.o. (▪) or i.v. (•) to a nine week old male Sprague Dawley rat (FIG. 6). For survival blood collection, 250-350 μL blood samples were collected via jugular vein (JUGVEIN) cannula at proposed time points per study protocol and recorded. Blood was collected pre-dose and at 15 & 30 min, 1, 2, 4, 12, 24 & 48 hr after Compound 1 administration. Blood was collected into lithium heparin tubes for plasma collection. Calibration standards and study samples were processed for LC/MS/MS analysis by precipitating 40 μL of each sample with two volumes of ice cold Internal Standard Solution (acetonitrile containing 50 ng/mL of dextromethorphan, 5 ng/mL diphenhydramine and 125 ng/mL diclofenac). The precipitated samples were centrifuged at 6100 g for 30 minutes. Following centrifugation, an aliquot of each supernatant was transferred to an autosampler plate and diluted with an equal volume of 0.2% formic acid in water. Processed study samples were analyzed using LC/MS/MS.

Data set [5] deals with Ca^2+ influx in murine cerebellum CRL-2540 cells (mouse microglia). As to the kind of experiment: Ca^2+ signaling assay in microglia activated with thapsigargin (Fluo-4). In kind it is cell-based. The procedure:
(§1) Compound 2 was screened for inhibition of Ca^2+ signaling by examining the intracellular Ca^2+ response in the presence of Compound 2 (FIG. 5). First, the murine cerebellum CRL-2540 cells, an immortalized line of mouse microglia, were loaded with the 2 μM of the Ca^2+ indicator dye, Fluo-4, to allow for detection of Ca^2+ influx. CRL-2540 cells were then cultured with Compound 2 and activated with 2 μM thapsigargin to induce Ca^2+ influx. Immediately after activation, Ca^2+ influx was determined by measuring CRL-2540 fluorescence using a flow cytometer. Maximal Ca^2+ influx occurred with a 0.52 fold increase in mean Fluo-4 fluorescence intensity compared to an unstimulated control.

The test system of data set [6] is primary human T cells. As to the kind of experiment: Primary human T cell proliferation assay (CFSE dilution). In kind it is cell-based. Particulars: 72 hours. The procedure: Compound 2 was screened for inhibition of primary human T cell proliferation by quantifying cellular divisions in the presence of Compound 2 (FIG. 3). First, a 96-well plate was coated with 4 μg/mL anti-CD3 antibody (clone: OKT3) in phosphate buffered saline overnight at 4 degrees Celsius. Primary human T cells were then isolated from the peripheral blood of a healthy, consenting donor using an antibody-based human T cell enrichment protocol. Human T cells were then stained with 1.75 μM of carboxyfluorescein succinimidyl ester, to allow for detection of cellular proliferation. Human T cells were then cultured with Compound 2 and activated with immobilized anti-CD3 and 1 μg/mL soluble anti-CD28 (clone: CD28.2) antibodies and 0.2 ng/mL recombinant human IL-2 to induce cellular proliferation through the NFAT and NF-κB transcription factor pathways. Proliferation was assayed through flow cytometric analysis of carboxyfluorescein succinimidyl ester dilution after 72 hours in standard culture conditions. Maximal proliferation occurred with a 3.9 fold increase in activation index compared to an unstimulated control.

The test system of a further data set is Human Jurkat T cells. Kind of data set: Cancer cell viability assay, Jurkat. The note with it: 120 hours, flow cytometric light scatter. In kind it is cell-based. The procedure:
(§2) Compound 2 was screened for inhibition of cancer cell survival by quantifying cellular death in the presence of Compound 2 (FIG. 4). Human Jurkat T cells (▪), an immortalized line of human acute T cell lymphoblastic leukemia; Ramos B cells (•), an immortalized line of human Burkitt's lymphoma; and primary human T cells (▴) isolated from the peripheral blood of a healthy, consenting donor were cultured in the presence Compound 2 to test for cellular viability and cell death. Cells were cultured in standard culture conditions, and primary human T cells were also activated with 4 μg/mL immobilized anti-CD3 (clone: OKT3) and 1 μg/mL soluble anti-CD28 (clone: CD28.2) antibodies and 0.2 ng/mL recombinant human IL-2. Cell viability was assayed through flow cytometric analysis of cellular light scatter following 72 hours for primary human or 120 hours for Jurkat and Ramos in standard culture conditions. Viable cell percentage was analyzed as the percent decrease of viable cells compared to a control well with no Compound 2 using a standard flow cytometry lymphocyte analysis gate of forward and side scatter.

Another data set deals with Ramos B cells. As to the kind of experiment: Cancer cell viability assay, Ramos. It is filed as cell-based, human. The note with it: 120 hours, flow cytometric light scatter. As for the experimental part: as §2
For orientation: In flow cytometry, cells or beads pass a laser one at a time.

In data set [7] the test system is Ca^2+ influx in human Jurkat T cells. Kind of data set: Ca^2+ signaling assay in Jurkat T cells activated with PHA-P (Fluo-4, flow cytometer). It is filed as cell-based. The procedure: as §1, with “2).” for “5).”, “human Jurkat T” for “murine cerebellum CRL-2540”, “human acute T cell lymphoblastic leukemia,” for “mouse microglia,”, “Jurkat” for “CRL-2540”, “Phytohemagglutinin PHA-P” for “2 μM thapsigargin”, “2.9” for “0.52”

In data set [8] the test system is primary human T cells. Kind of data set: Cell viability assay, primary human T cells. It is filed as cell-based. Particulars: primary human T cells from a healthy donor, activated, 72 hours. The procedure:
as §2

Setting [9] is: male, Sprague Dawley, plasma, iv, 10000 ug/kg.
The mark [10] stands for this setting: male, Sprague Dawley, plasma, po, 10000 ug/kg.

Like-named read-outs stand apart in the source and are kept apart here.

Regarding `CC(C)(C)c1cc(CCC(=O)c2ccc[nH]2)cc(C(C)(C)C)c1O` [Compound 1, 3-(3,5-di-tert-butyl-4-hydroxyphenyl)-1-(1H-pyrrol-2-yl)propan-1-one], the “Animal body weight and clinical observations” value in data set [1] is “appeared normal”. The efflux ratio in the data set with MDR1 turned out to be 1.6. In addition, in the data set on MDR1 (Apical to Basolateral), the Papp A→B is 1 ×10⁻⁶ cm/s. This compound also returned a basolateral-to-apical permeability (Papp B→A) in the data set with MDR1 (Basolateral to Apical) of 1.6 ×10⁻⁶ cm/s. Moreover, in data set [2], the “Modulation of store-operated Ca^2+ (SOC) channels” value is “modulates store-operated Ca^2+ (SOC) channels”. Besides, the “Recovery of animals in the EAE model” value in data set [3] (5 mg/kg i.p. daily starting on day −1) is “enhanced recovery”. Moreover, the “Neuroprotection (clinical score) compared to vehicle-treated mice” value in data set [3] (5 mg/kg i.p. daily, p<0.05) is on record as “significant neuroprotection”. In the data set “in vivo” (Compound level in the brain), this compound displayed a concentration at 1 h of 38 ± 4 nM. Further, the concentration at 1 h in “in vivo” (Compound level in the plasma) came to 23.3 ± 3.1 nM. Also, in data set [4] (setting [9]), the AUC(0-inf) stood at 706 ng·h/mL, the AUC(0-t) turned out to be 694 ng·h/mL, the Cmax was determined as 837 ng/mL and the MRT inf amounted to 1.9 h. In [4] (setting [9]), the Tmax worked out at 0.25 h and the clearance is 236 mL/min/kg. Moreover, the half-life in [4] (male, Sprague Dawley, plasma, iv, 10000 ug/kg, i.v., 10000 μg/kg, read-out: Terminal t½ (converted)) was 2.64 h. Moreover, the Vd in [4] (male, Sprague Dawley, plasma, iv, 10000 ug/kg, i.v., 10000 μg/kg, read-out: VSS) worked out at 26.9 L/kg. In addition, in data set [4] (setting [10]), the total exposure AUC(0-inf) turned out to be 747 ng·h/mL, the exposure AUC(0-t) is 679 ng·h/mL, the highest concentration (Cmax) amounted to 126 ng/mL and the time to peak (Tmax) came to 2 h. Moreover, the bioavailability in [4] (setting [10]) turned out to be 106%. For the same compound, the half-life in data set [4] (male, Sprague Dawley, plasma, po, 10000 ug/kg, p.o., 10000 μg/kg, read-out: T½ (converted)) is 3.27 h. Besides, the “Animal body weight and clinical observations” value in data set [4] (p.o. or i.v., 10000 μg/kg) is “appeared normal”.

`CC(C)(C)c1cc(CCC(=O)c2[nH]c(Cl)c(Cl)c2Cl)cc(C(C)(C)C)c1O` [Compound 2, 3-(3,5-di-tert-butyl-4-hydroxyphenyl)-1-(3,4,5-trichloro-1H-pyrrol-2-yl)propan-1-one]: the “Maximal inhibition of Ca^2+ influx, fold increase compared to an unstimulated control” value is listed as 0.19 fold in [5] (CRL-2540, thapsigargin, maximal influx 0.52 fold) and 0.35 fold in data set [7] (PHA-P, maximal influx 2.9 fold). The IC50 stood at 10.9 µM in [5] (Mus musculus, CRL-2540 microglia, 2 μM thapsigargin, Fluo-4, read-out: IC50 of inhibition of Ca^2+ influx); 0.671 µM in the data set with primary human T cells [6] (Homo sapiens, T-cell, anti-CD3/anti-CD28/IL-2 activation, read-out: IC50 of inhibition of primary human T cell proliferation); 3.78 µM in [7] (Homo sapiens, PHA-P activation, Fluo-4 fluorescence, read-out: IC50 of inhibition of Ca^2+ influx). The “Maximal inhibition of proliferation, fold increase in activation index compared to an unstimulated control” value in the data set with primary human T cells [6] (maximal proliferation 3.9 fold) is listed as 0.91 fold. The “Cell viability in the presence of compound” value with Human Jurkat T cells is on record as “decreased”; with Ramos B cells, “decreased”; in the data set on primary human T cells [8] it was “did not decrease”.

By efflux ratio is commonly meant a quotient of directional permeabilities that is used to spot active efflux. What is called Papp A→B is the apparent permeability from the apical to the basolateral side of a cell layer. Higher therefore signals ready permeation. For orientation: Papp B→A means how fast a substance crosses the layer from the basolateral side. Broadly, the AUC(0-inf) is the area under the concentration-time curve extrapolated to infinity. For orientation: AUC(0-t) means the area under the concentration-time curve up to a stated or last time point. Usually Cmax stands for the highest concentration seen after dosing. In general, MRT inf refers to a mean duration of stay, worked out from the concentration-time curve. As usually defined, the Tmax is the time at which the peak concentration occurs. Broadly, the clearance is the volume of plasma or blood freed of the substance per unit of time. Low values mean inefficient removal, high ones efficient removal.
